Source: the RepoRT retention time repository (doi:10.1016/j.chroma.2019.01.023)

Legend:
Conditions in all cases: stereoisomer not certain
[1] = RP, Phenomenex Kinetex C18, 150 × 2.1 mm, 1.7 µm, 30 °C, 0.3 mL/min, estimated dead time 1.1 min; A: water + 0.1% formic acid, pH 3; B: acetonitrile + 0.1% formic acid, pH 3; gradient (min/%B) 0/2 14/100 17/100 17.1/2 25/2
[2] = as above; remark: listed apart in the source
[3] = HILIC, Merck SeQuant ZIC-pHILIC, 150 × 2.1 mm, 5 µm, 40 °C, 0.3 mL/min, estimated dead time 1.1 min; A: acetonitrile; B: water + 2.8 mM ammonium formate, pH 9; gradient (min/%B) 0/5 1/5 10/51 13/51 13.1/5 20/5
[4] = HILIC, Waters ACQUITY UPLC BEH Amide, 150 × 2.1 mm, 1.7 µm, 40 °C, 0.5 mL/min, estimated dead time 0.66 min; A: 5% water + 95% acetonitrile; B: 70% water + 30% acetonitrile + 10 mM ammonium formate, pH 6.5; gradient (min/%B) 0/0 2/0 20/70 23/70 24/0 31/0

| Compound | LC retention time [1] [min] | LC retention time [2] [min] | LC retention time [3] [min] | LC retention time [4] [min] |
| --- | --- | --- | --- | --- |
| O=c1[nH]c(=O)c2nccnc2[nH]1 [2,4-DIHYDROXYPTERIDINE] | 2.24 | 2.49 | 4.42 | 1.79 |
| Nc1cc([O-])cc(C(=O)O)c1 [3-AMINO-5-HYDROXYBENZOATE] | 1.62 | 1.75 | 8.3 | 2.31 |
| CC(=O)NCCCC(=O)[O-] [4-ACETAMIDOBUTANOATE] | 2.47 | 2.62 | 5.1 | 3.11 |
| O=C(O)c1ccnc2ccccc12 [4-QUINOLINECARBOXYLATE] | 2.29 | 2.5 | 5.08 | 2.82 |
| O=C(O)Cc1c[nH]c2ccc(O)cc12 [5-HYDROXYINDOLEACETATE] | 4.49 | 4.69 | 5.86 | 1.37 |
| O=C(O)c1ccc(=O)[nH]c1 [6-HYDROXYNICOTINATE] | 2.61 | 2.76 | 7.69 | 5.68 |
| O=C(O)CCCCC1SCC2NC(=O)NC21 (stereo not given) [BIOTIN] | 4.77 | 4.98 | 5.57 | 5.11 |
| CC(CCC(=O)O)C1CCC2C3C(O)CC4CC(O)CCC4(C)C3CCC12C (stereo not given) [CHENODEOXYCHOLATE] | 10.7 | 10.8 |  | 1 |
| CC12CCC(=O)C=C1CCC1C2C(O)CC2(C)C(C(=O)CO)CCC12 (stereo not given) [CORTICOSTERONE] | 8.03 | 8.14 |  | 0.85 |
| CC(=O)OCC(=O)C1(O)CCC2C3CCC4=CC(=O)CCC4(C)C3C(O)CC21C (stereo not given) [CORTISOL 21-ACETATE] | 8.62 | 8.68 |  | 0.83 |
| CC12CCC(=O)C=C1CCC1C2C(O)CC2(C)C1CCC2(O)C(=O)CO (stereo not given) [CORTISOL] | 7.09 | 7.18 | 1.43 | 1 |
| Nc1nc2c(ncn2C2CC(O)C(CO)O2)c(=O)[nH]1 (stereo not given) [DEOXYGUANOSINE] | 2.84 | 2.97 | 7.04 | 6.48 |
| Nc1nc2c(ncn2C2OC(CO)C(O)C2O)c(=O)[nH]1 (stereo not given) [GUANOSINE] | 2.67 | 2.8 | 7.76 | 7.3 |
| NC(=O)Cc1c[nH]c2ccccc12 [INDOLE-3-ACETAMIDE] | 5.26 | 5.42 | 2.09 | 0.98 |
| OCCc1c[nH]c2ccccc12 [INDOLE-3-ETHANOL] | 5.55 | 6.56 | 3.41 | 0.83 |
| CC(CCC(=O)NCCS(=O)(=O)O)C1CCC2C3CCC4CC(O)CCC4(C)C3CCC12C (stereo not given) [LITHOCHOLYLTAURINE] | 9.54 | 9.43 |  | 1.01 |
| CC(C)=CCNc1ncnc2nc[nH]c12 [N6-(DELTA2-ISOPENTENYL)-ADENINE] | 4.91 | 5.14 | 2.04 | 1.15 |
| CC(=O)NCCc1c[nH]c2ccc(O)cc12 [N-ACETYLSEROTONIN] | 4.58 | 4.83 | 2.26 | 1.02 |
| O=C(O)c1cccnc1C(=O)O [QUINOLINATE] | 1.47 | 1.5 | 1.76 |  |
| CC1NCCc2cc(O)c(O)cc21 (stereo not given) [SALSOLINOL] | 1.95 | 2.16 |  | 8.1 |
| O=C(O)c1cc(=O)c2cccc(O)c2[nH]1 [XANTHURENATE] | 4.05 | 4.12 | 6.93 |  |

Next, values leading:

| LC retention time [1] [min] | LC retention time [2] [min] | LC retention time [3] [min] | LC retention time [4] [min] | Compound |
| --- | --- | --- | --- | --- |
| 3.16 | 3.36 | 4.07 | 2.82 | Cn1cnc2c(ncn2C2OC(CO)C(O)C2O)c1=N (stereo not given) [1-METHYLADENOSINE] |
| 6.35 | 6.45 |  | 0.96 | CC(=O)c1ccc(O)cc1O [2',4'-DIHYDROXYACETOPHENONE] |
| 6.44 | 6.51 | 6.36 | 6.98 | N[C@@H](Cc1cc(I)c(Oc2ccc(O)cc2)c(I)c1)C(=O)O [3,5-DIIODO-L-THYRONINE] |
| 3.11 | 3.24 | 4.24 | 2.4 | CC1OC(n2cnc3c(N)ncnc32)C(O)C1O (stereo not given) [5'-DEOXYADENOSINE] |
| 6.14 | 6.26 | 3.51 | 1.24 | O=C(O)CCCCCCCC(=O)O [AZELATE] |
| 9.02 | 9.11 | 2.33 | 2.62 | CC(CCC(=O)O)C1CCC2C3C(O)CC4CC(O)CCC4(C)C3CC(O)C12C (stereo not given) [CHOLATE] |
| 8.32 | 8.31 |  | 0.83 | CC12CCC(=O)C=C1CCC1C2CCC2(C)C1CCC2(O)C(=O)CO (stereo not given) [CORTEXOLONE] |
| 7.16 | 7.28 |  | 0.86 | CC12CCC(=O)C=C1CCC1C2C(=O)CC2(C)C1CCC2(O)C(=O)CO (stereo not given) [CORTISONE] |
| 2.54 | 2.8 | 5.19 | 2.91 | Nc1ncnc2c1ncn2C1CC(O)C(CO)O1 (stereo not given) [DEOXYADENOSINE] |
| 1.43 | 1.54 | 6.63 | 5.71 | Nc1ccn(C2CC(O)C(CO)O2)c(=O)n1 (stereo not given) [DEOXYCYTIDINE] |
| 2.39 | 2.63 | 4.73 | 2.37 | O=c1ccn(C2CC(O)C(CO)O2)c(=O)[nH]1 (stereo not given) [DEOXYURIDINE] |
| 5.18 | 5.37 | 3.18 | 2.6 | CC1NC(=O)NC1CCCCCC(=O)O (stereo not given) [DETHIOBIOTIN] |
| 5.76 | 5.87 | 3.78 | 1.24 | COc1cc(C=CC(=O)O)ccc1O [FERULATE] |
| 1.64 | 1.44 | 7.4 | 6.4 | Nc1nc2nc[nH]c2c(=O)[nH]1 [GUANINE] |
| 4.62 | 4.78 | 5.32 | 2.66 | O=C(O)CNC(=O)c1ccccc1 [HIPPURATE] |
| 1.62 | 1.76 | 6.25 | 3.88 | O=c1[nH]cnc2nc[nH]c12 [HYPOXANTHINE] |
| 2.64 | 2.79 | 6.86 | 5.52 | O=c1[nH]cnc2c1ncn2C1OC(CO)C(O)C1O (stereo not given) [INOSINE] |
| 4.19 | 4.34 | 5.56 | 2.69 | O=C(O)c1cc(=O)c2ccccc2[nH]1 [KYNURENATE] |
| 3.7 | 3.82 | 7.51 | 5.86 | NC(=O)[C@@H](N)Cc1c[nH]c2ccccc12 [L-TRYPTOPHANAMIDE] |
| 6.13 | 6.2 | 2.06 | 1.32 | Cc1cc2nc3[nH]c(=O)[nH]c(=O)c3nc2cc1C [LUMICHROME] |
| 6.29 | 6.37 | 1.36 | 0.88 | COc1ccc2[nH]cc(CCNC(C)=O)c2c1 [MELATONIN] |
| 3.82 | 4.07 | 3.94 | 1.99 | CSCC1OC(n2cnc3c(N)ncnc32)C(O)C1O (stereo not given) [METHYLTHIOADENOSINE] |
| 5.08 | 5.25 | 3.02 | 4.22 | CC(=O)NC(CC(C)C)C(=O)O (stereo not given) [N-ACETYLLEUCINE] |
| 4.1 | 4.22 | 4.9 | 3.31 | CSCCC(NC(C)=O)C(=O)O (stereo not given) [N-ACETYLMETHIONINE] |
| 5.54 | 5.64 | 4.08 | 2.48 | CC(=O)NC(Cc1ccccc1)C(=O)O (stereo not given) [N-ACETYLPHENYLALANINE] |
| 5.82 | 5.91 | 5.66 | 2.78 | CC(=O)NC(Cc1c[nH]c2ccccc12)C(=O)O (stereo not given) [N-ACETYLTRYPTOPHAN] |
| 3.85 | 3.93 | 5.35 | 2.24 | CSCC[C@H](NC=O)C(=O)O [N-FORMYL-L-METHIONINE] |
| 8.07 | 8.06 | 6.1 |  | NC(Cc1cc(I)c(Oc2cc(I)c(O)c(I)c2)c(I)c1)C(=O)O (stereo not given) [THYROXINE] |
